# Measured values taken from US11945824B2, “Heterocyclic compounds as anti-viral agents” (priority 2020, dated 2024).
# Read-outs that look alike come from different tables or passages of the source.
# What was measured:
# [1] = tested on: Human RSV-A (“Long” strain); test: RSV-A assay (CPE, ATPlite readout in Hep-2 cells); type: cell-based; conditions: human respiratory syncytial virus, read-out: Human RSV-A (“Long” strain) EC50
# Description: Hep-2 cells, (originally derived from tumors grown in irradiated-cortisonised weanling rats that had been injected with epidermoid carcinoma tissue from a person's larynx, but later found to be indistinguishable from HeLa cells by PCR DNA analysis), were used for the culturing of genotype A, “Long” strain RSV. Flasks were inoculated with RSV and viral stocks were collected once cytopathic effect (CPE) was greater than 90%. Viral stocks in 25% sucrose media were snap frozen using liquid nitrogen to increase viral stability. Viral stock titers were quantified by tissue culture infectious dose 50% (TCID50) using 8,000 cells per well and 3-fold viral dilutions across a 96-well plate, cultured for 4 days. Viral stock titers were also quantified by a plaque forming unit assay, as described elsewhere.
# Following extensive parameter testing, the final assay is run as follows: Hep-2 cells are seeded into the inner 60 wells of a 96-well plate at 8,000 cells per well in a volume of 50 μL using Growth Media (DMEM without phenol red, 1% L-Glut, 1% Penn/Strep, 1% nonessential amino acids, 10% heat-inactivated FBS). 2-fold serial dilutions of control and test compounds are added to the wells in duplicate in a total volume of 25 μL. Viral stock is then added to the wells at a multiplicity of infection (MOI) of 0.1 in a volume of 25 μL, bringing the total volume of each well to 100 μL. The MOI is calculated using the PFU/mL, or TCID50 if unavailable. Each 96-well plate has a control column of 6 wells with cells and virus but no compound (negative control, max CPE), a column with cells but no compound or virus (positive control, minimum CPE), and a column with no cells or virus or compound (background plate/reagent control). The control wells with cells but no virus are given an additional 25 μL of growth media containing an equal quantity of sucrose as those wells receiving the viral stock in order to keep consistent in media and volume conditions. The outer wells of the plate are filled with 125 μL of moat media (DMEM, 1% Penn/Strep) to act as a thermal and evaporative moat around the test wells. Following a 5-day incubation period, the plates are read using ATPlite (50 uL added per well), which quantifies the amount of ATP (a measure of cell health) present in each well. Assay plates are read using the Envision luminometer. […] EC50 ranges are as follows: A<0.2 μM; B≥0.2 μM.
# [2] = tested on: rHMPV-GFP (recombinant HMPV CAN97-83, MPV-GFP1); test: HMPV antiviral assay (eGFP fluorescence in Vero E6 cells); type: cell-based; conditions: human metapneumovirus, Vero C1008, 120 h, read-out: rHMPV-GFP EC50
# Description: Method for HMPV Antiviral Assay
# HMPV antiviral activity was evaluated using a recombinant version of HMPV CAN97-83 engineered to contain the coding sequence for enhanced green fluorescence protein (eGFP) in the 3′ end of the virus genome (MPV-GFP1, ViraTree). Vero E6 cells (ATCC #CCL-7) were seeded at a density of 12,000 cells/100 μL/well into 96-well cell plates (VENDOR) one day prior to the assay. On the day of screening, the cell culture medium was aspirated from the wells and cells were washed twice with serum-free Eagle's Modified Essential Medium (EMEM, ATCC #) containing 1% penicillin-streptomycin (Invitrogen) (SF-EMEM). Cell washes were performed by dispensing 100 μL SF-EMEM per well and immediately aspirating the wash medium from the well. Following the second wash step, serum-free OptiMEM (Invitrogen, Cat No.) (SF-OptiMEM) containing 0.5 μg/mL TPCK-Trypsin (VENDOR) and 1% penicillin-streptomycin was added to the cells at 50 μL/well. Compounds were added into the 96-well plates using a JANUS automated liquid handling system (VENDOR). Compounds were initially diluted 1:50 into an intermediate 96-well plate containing SF-OptiMEM prior to transfer to the assay plate (25 μL/well). Each of the test compounds were tested in duplicate wells at final concentrations starting from 8 μM or 2 μM using ½ stepwise dilutions for a total of 8 points. Virus infection was performed by preparing a working stock of MPV-GFP1 at a multiplicity of infection (MOI) equal to 0.05/25 μL and aliquoting 25 μL of virus inoculum to the compound and positive control wells. SF-OptiMEM was added (25 μL/well) to the appropriate wells to serve as a virus-free negative control for the assay. The final DMSO concentration of all wells is 0.5%. Plates were incubated at 32° C., 5% CO2 for 5 days. After 5 days incubation, eGFP fluorescence intensity was measured at […] using a Spectramax i3X plate reader (VENDOR).
# Percent viral inhibition was calculated using the following equation: y=[[…](XQ/XP)]×100 Where XQ is the fluorescence intensity measured in a well containing recombinant MPV-GFP1-infected, compound-treated cells and XP is the average fluorescence intensity measured in the wells containing untreated cells infected with recombinant virus. EC50 values were then calculated by non-linear regression using a four-parameter curve logistic equation. The curve fit model employed was XLFit Dose Response One Site Model 200: y=(A+(B/(1+((x/C)^D)))) Where A is the minimum y value, B is the maximum y value, C is the log EC50 value, and D is the slope factor. The EC50 for each compound is listed in Table 2 and EC50 ranges are as follows: A<0.2 μM; B≥0.2 μM.
# [3] = 120 h, Hep-2 cells, MOI 0.1, 5-day incubation, ATPlite
Structure (SMILES),"EC50 [1, 3]",EC50 [2],"EC50 ([1]; HEp-2, 120 h)"
"COc1cc(C(=O)NC[C@](O)(c2cc3c(c(-c4ccc(F)cc4)n2)OC[C@@]3(n2ccnn2)C(F)(F)F)C(F)(F)F)ccc1OC1CC1 [Example 1, 4-cyclopropoxy-3-methoxy-N-((S)-3,3,3-trifluoro-2-((R)-7-(4-fluorophenyl)-3-(1H-1,2,3-triazol-1-yl)-3-(trifluoromethyl)-2,3-dihydrofuro[2,3-c]pyridin-5-yl)-2-hydroxypropyl)benzamide]",> 200 nM,> 200 nM,–
"COc1cc(C(=O)NC[C@](C)(O)c2cc3c(c(-c4ccc(F)cc4)n2)OC[C@@]3(n2cnnc2)C(F)(F)F)ccc1OC1CC1 [Example 2, 4-cyclopropoxy-N-((S)-2-((R)-7-(4-fluorophenyl)-3-(4H-1,2,4-triazol-4-yl)-3-(trifluoromethyl)-2,3-dihydrofuro[2,3-c]pyridin-5-yl)-2-hydroxypropyl)-3-methoxybenzamide]",< 200 nM,> 200 nM,–
"COc1cc(C(=O)NC[C@](O)(c2cc3c(c(-c4ccc(F)cc4)n2)OC[C@@]3(n2cnnc2)C(F)(F)F)C2CC2)ccc1OC1CC1 [Example 3, 4-cyclopropoxy-N-((S)-2-cyclopropyl-2-((R)-7-(4-fluorophenyl)-3-(4H-1,2,4-triazol-4-yl)-3-(trifluoromethyl)-2,3-dihydrofuro[2,3-c]pyridin-5-yl)-2-hydroxyethyl)-3-methoxybenzamide]",–,> 200 nM,< 200 nM
"COc1cc(C(=O)NC[C@](O)(c2cc3c(c(-c4ccc(F)cc4)n2)OC[C@@]3(n2ccnc2)C(F)(F)F)C2CC2)ccc1OC1CC1 [Example 4, 4-cyclopropoxy-N-((S)-2-cyclopropyl-2-((R)-7-(4-fluorophenyl)-3-(1H-imidazol-1-yl)-3-(trifluoromethyl)-2,3-dihydrofuro[2,3-c]pyridin-5-yl)-2-hydroxyethyl)-3-methoxybenzamide]",–,–,< 200 nM
"COc1cc(C(=O)NC[C@](O)(c2cc3c(c(-c4ccc(F)cc4)n2)OC[C@]3(C)n2cnnc2)C(F)(F)F)ccc1OC1CC1 [Example 6, 4-cyclopropoxy-3-methoxy-N-((S)-3,3,3-trifluoro-2-((R)-7-(4-fluorophenyl)-3-methyl-3-(4H-1,2,4-triazol-4-yl)-2,3-dihydrofuro[2,3-c]pyridin-5-yl)-2-hydroxypropyl)benzamide]",< 200 nM,> 200 nM,–
"COc1cc(C(=O)NC[C@](O)(c2cc3c(c(-c4ccc(F)cc4)n2)OC[C@]3(C)n2cnnc2)C(F)(F)F)cc2cccnc12 [Example 7, 8-methoxy-N-((S)-3,3,3-trifluoro-2-((R)-7-(4-fluorophenyl)-3-methyl-3-(4H-1,2,4-triazol-4-yl)-2,3-dihydrofuro[2,3-c]pyridin-5-yl)-2-hydroxypropyl)quinoline-6-carboxamide]",> 200 nM,–,–
"COc1cc(C(=O)NC[C@](O)(c2cc3c(c(-c4ccc(F)cc4)n2)OC[C@]3(C)n2ccnc2)C(F)(F)F)cc2cccnc12 [Example 8, 8-methoxy-N-((S)-3,3,3-trifluoro-2-((R)-7-(4-fluorophenyl)-3-(1H-imidazol-1-yl)-3-methyl-2,3-dihydrofuro[2,3-c]pyridin-5-yl)-2-hydroxypropyl)quinoline-6-carboxamide]",< 200 nM,–,–
"COc1cc(C(=O)NC[C@](O)(c2cc3c(c(-c4ccc(F)cc4)n2)OC[C@]3(C)n2ccnc2)C(F)(F)F)ccc1OC1CC1 [Example 9, 4-cyclopropoxy-3-methoxy-N-((S)-3,3,3-trifluoro-2-((R)-7-(4-fluorophenyl)-3-(1H-imidazol-1-yl)-3-methyl-2,3-dihydrofuro[2,3-c]pyridin-5-yl)-2-hydroxypropyl)benzamide]",< 200 nM,> 200 nM,–
"COc1cc(C(=O)NC[C@](O)(c2cc3c(c(-c4ccc(F)cc4)n2)OC[C@]3(C)n2cccc2)C(F)(F)F)cc2cccnc12 [Example 10, 8-methoxy-N-((S)-3,3,3-trifluoro-2-((R)-7-(4-fluorophenyl)-3-methyl-3-(1H-pyrrol-1-yl)-2,3-dihydrofuro[2,3-c]pyridin-5-yl)-2-hydroxypropyl)quinoline-6-carboxamide]",> 200 nM,–,–
"COc1cc(C(=O)NC[C@](O)(c2cc3c(c(-c4ccc(F)cc4)n2)OC[C@]3(C)n2ccnn2)C(F)(F)F)ccc1OC1CC1 [Example 11, 4-cyclopropoxy-3-methoxy-N-((S)-3,3,3-trifluoro-2-((R)-7-(4-fluorophenyl)-3-methyl-3-(1H-1,2,3-triazol-1-yl)-2,3-dihydrofuro[2,3-c]pyridin-5-yl)-2-hydroxypropyl)benzamide]",< 200 nM,> 200 nM,–
"COc1cc(C(=O)NC[C@](O)(c2cc3c(c(-c4ccc(F)cc4)n2)OC[C@]3(C)n2cc(C3CC3)nn2)C(F)(F)F)ccc1OC1CC1 [Example 12, 4-cyclopropoxy-N-((S)-2-((R)-3-(4-cyclopropyl-1H-1,2,3-triazol-1-yl)-7-(4-fluorophenyl)-3-methyl-2,3-dihydrofuro[2,3-c]pyridin-5-yl)-3,3,3-trifluoro-2-hydroxypropyl)-3-methoxybenzamide]",< 200 nM,–,–
"COc1cc(C(=O)NC[C@](C)(O)c2cc3c(c(-c4ccc(F)cc4)n2)OC[C@]3(C)n2cnnc2)ccc1OC1CC1 [Example 13, 4-cyclopropoxy-N-((S)-2-((R)-7-(4-fluorophenyl)-3-methyl-3-(4H-1,2,4-triazol-4-yl)-2,3-dihydrofuro[2,3-c]pyridin-5-yl)-2-hydroxypropyl)-3-methoxybenzamide]",< 200 nM,> 200 nM,–
"COc1cc(C(=O)NC[C@](C)(O)c2cc3c(c(-c4ccc(F)cc4)n2)OC[C@]3(C)n2cnnc2)cc2cccnc12 [Example 14, N-((S)-2-((R)-7-(4-fluorophenyl)-3-methyl-3-(4H-1,2,4-triazol-4-yl)-2,3-dihydrofuro[2,3-c]pyridin-5-yl)-2-hydroxypropyl)-8-methoxyquinoline-6-carboxamide]",> 200 nM,–,–
"COc1cc(C(=O)NC[C@](O)(c2cc3c(c(-c4ccc(F)cc4)n2)OC[C@]3(C)n2cnnc2)C2CC2)ccc1OC1CC1 [Example 15, 4-cyclopropoxy-N-((S)-2-cyclopropyl-2-((R)-7-(4-fluorophenyl)-3-methyl-3-(4H-1,2,4-triazol-4-yl)-2,3-dihydrofuro[2,3-c]pyridin-5-yl)-2-hydroxyethyl)-3-methoxybenzamide]",< 200 nM,> 200 nM,–
"COc1cc(C(=O)NC[C@](O)(c2cc3c(c(-c4ccc(F)cc4)n2)OC[C@]3(C)c2nnn[nH]2)C(F)(F)F)cc2cccnc12 [Example 19, 8-methoxy-N-((S)-3,3,3-trifluoro-2-((S)-7-(4-fluorophenyl)-3-methyl-3-(1H-tetrazol-5-yl)-2,3-dihydrofuro[2,3-c]pyridin-5-yl)-2-hydroxypropyl)quinoline-6-carboxamide]",> 200 nM,–,–
